Results published in patent US20090111836A1, “Angular Pyranocoumarins, Process for Preparation and Uses Thereof” (CITY UNIVERSITY OF HONG KONG, priority 2007, published 2009).
Values joined by “and” are separate entries in the source; they are usually repeats but may differ in a detail not shown here. Equal values may be shown once. “Also recorded” adds a separate entry of the source.

What was measured:
Type in all cases: cell-based, human
P-gp [1] = experiment: Immunoblotting analysis of P-gp expression, HepG2-DR; conditions: 4 μM, 72 hours
Experimental: (§1) Immunoblotting analysis of P-gp expression: cells were treated with 4 μM of cis-DMDCK, 4 μM of cis-DMDBK, 4 μM of trans-DMDCK, or 4 μM of trans-DMDBK for 72 hours. Treated cells were collected and mixed well in ice-cold lysis buffer (50 mM Tris pH7.4, 100 mM NaCl, 2 mM EDTA, 1% sodium deoxycholate, 0.1% SDS, 1% triton X-100, 2 mM PMSF, 1% aprotinin) for 30 minutes and then centrifuged to get the total protein. Protein concentration was determined using Bradford assay. In this experiment, 50 μg total protein was separated by 8% SDS-PAGE and electro-transferred to nitrocellulose membranes. The membrane was blocked by 5% skim milk/0.1% Tween-20/TBS (10 mM Tris pH7.5, 100 mM NaCl), and then incubated with anti-P-pg antibody for 1 hour, followed by horseradish-peroxidase-conjugated secondary antibody for another 1 hour. Protein bands were detected by the ECL method.

KB V1 cells = experiment: SRB growth inhibition assay, KB V1; conditions: IC50 KB V1 / IC50 KB-3-1
P-gp [2] = experiment: Immunoblotting analysis of P-gp expression, KB V1; conditions: KB V1, 4 μM, 72 hours
Experimental: as §1

K562-DR cells [3] = experiment: MTT growth inhibition assay, K562-DR; conditions: IC50 K562-DR / IC50 K562
Experimental: K562, K562-DR, HepG2, HepG2-DR were cultured in RPMI-1640 medium containing 10% fetal bovine serum and 100 U/mL, antibiotics. […] Drug test: […] New calorimetric cytotoxicity assay for anticancer-drug screening. […] Mosmann T. Rapid colorimetric assay for cellular growth and survival: application to proliferation and cytotoxicity assays. […] Gerlier D, Thomasset N. […] Each growth inhibition experiment must be repeated three times and results are expressed as mean±standard deviation (SD). Solvents and media were included as blank control. In MTT assay, cells are inoculated at 5000 cells/well and are incubated overnight. Drug treatment lasts for 68 h. MTT (5 mg/ml in PBS) is added to each well (1:10 dilution). […] Viable cell number is estimated by correlating to OD at 570 nm.

HepG2-DR cells [4] = experiment: Reversal of multidrug resistance (fold decrease of anticancer drug IC50), HepG2-DR
Experimental: (§2) Cells and cell culture: cell lines used in the experiments are human hepatoma cell line (HepG2), human leukemia cell line (K562), human epidermoid carcinoma cell line (KB-3-1) and their multidrug resistant sublines HepG2-DR, K562-DR. and KB V1. The culture conditions for all cells are following: at 37° C. and 5% CO2), KB-3-1 and KBV1 were cultured in MEM medium containing 10% fetal bovine serum and 100 U/mL antibiotics; K562, K562-DR, HepG2, HepG2-DR were cultured in RPMI-1640 medium containing 10% fetal bovine serum and 100 U/mL, antibiotics. For maintaining the phenotypic characteristics of multidrug resistance, 1.2 μM and 0.1 μM doxorubicin were respectively added into the mediums of HepG2-DR and K562-DR; 200 ng/mL vinblastine was added into the medium of KBV1. Drug resistant cells were grown in drug free medium for at least 7 days before test.
(§3) Each growth inhibition experiment must be repeated three times and results are expressed as mean±standard deviation (SD). Solvents and media were included as blank control.
In SRB assay, cells are inoculated at 5000 cells/well in a 96-well microplate and incubated overnight to let cells adhere. Drug treatment lasts for 72 hours and cells are fixed for 1 hour at 4° C. with 50 μl ice-cold 15% trichloroacetic acid and washed with triple-distilled water 5 times. Cellular protein is stained by adding 50 μl of 0.4% SRB in 1% acetic acid for 10 minutes, rinsed with 1% acetic acid 5 times and air-dried. The protein-bound dye is dissolved in 100 μl per well of 10 mM Tris base (pH 10.5). The color intensity of SRB, which positively correlate to cell number in preliminary experiments, is estimated at OD 515 nm.
(§4) 1. Materials and methods: the same with I.
(§5) To evaluate the multidrug resistance reversing ability of (±)-Praeruptorin A derivatives, IC50 values of anticancer drugs in the presence and absence of cis-DMDCK, cis-DMDBK, trans-DMDCK, or trans-DMDBK at certain concentration were determined in HepG2-DR, K562-DR and KB V1 cells. The fold decrease of IC50 value of an anticancer drug in certain cell line achieved by a test compound is calculated (fold decrease=IC50 of an anti-tumor drug alone/IC50 of the anti-tumor drug in combination with the test compound) and is used for evaluating the ability of the test compound to reduce drug resistance. The larger the fold decrease value is, the stronger its ability to reverse drug resistance is. The results were average values of three repetitive tests. Verapamil (P-glycoprotein modulator) is the positive control.

HepG2-DR cells [5] = experiment: SRB growth inhibition assay, HepG2-DR; conditions: IC50 HepG2-DR / IC50 HepG2
Experimental: K562, K562-DR, HepG2, HepG2-DR were cultured in RPMI-1640 medium containing 10% fetal bovine serum and 100 U/mL, antibiotics. […] Drug test: […] New calorimetric cytotoxicity assay for anticancer-drug screening. […] Mosmann T. Rapid colorimetric assay for cellular growth and survival: application to proliferation and cytotoxicity assays. […] Gerlier D, Thomasset N. […] Each growth inhibition experiment must be repeated three times and results are expressed as mean±standard deviation (SD). Solvents and media were included as blank control. In SRB assay, cells are inoculated at 5000 cells/well in a 96-well microplate and incubated overnight to let cells adhere. Drug treatment lasts for 72 hours and cells are fixed for 1 hour at 4° C. with 50 μl ice-cold 15% trichloroacetic acid and washed with triple-distilled water 5 times. […] The protein-bound dye is dissolved in 100 μl per well of 10 mM Tris base (pH 10.5). The color intensity of SRB, which positively correlate to cell number in preliminary experiments, is estimated at OD 515 nm.

K562-DR cells [6] = experiment: Reversal of multidrug resistance (fold decrease of anticancer drug IC50), K562-DR; conditions: 4 μM test compound
Experimental: as §2, §3
In MTT assay, cells are inoculated at 5000 cells/well and are incubated overnight. Drug treatment lasts for 68 h. MTT (5 mg/ml in PBS) is added to each well (1:10 dilution). After incubation for 4 hour at 37° C., 5% CO2, 100 μl of stop solution (10% SDS-50% isobutanol-0.01N HCl) is added to each well to stop the reaction. Viable cell number is estimated by correlating to OD at 570 nm.
as §4, §5

| SMILES | Change in P-gp (MDR1) expression level (P-gp [1]) | Resistant ratio (KB V1 cells) | Change in P-gp (MDR1) expression level (P-gp [2]) | Resistant ratio (K562-DR cells [3]) | Reversing parameter: fold decrease of IC50 of Doxorubicin (HepG2-DR cells [4]; 1 μM test compound) | Reversing parameter: fold decrease of IC50 of Puromycin (HepG2-DR cells [4]; 1 μM test compound) | Reversing parameter: fold decrease of IC50 of Vinblastine (HepG2-DR cells [4]; 1 μM test compound) | Reversing parameter: fold decrease of IC50 of Doxorubicin (HepG2-DR cells [4]; 2 μM test compound) | Reversing parameter: fold decrease of IC50 of Puromycin (HepG2-DR cells [4]; 2 μM test compound) | Reversing parameter: fold decrease of IC50 of Vinblastine (HepG2-DR cells [4]; 2 μM test compound) | Reversing parameter: fold decrease of IC50 of Doxorubicin (HepG2-DR cells [4]; 4 μM test compound) | Reversing parameter: fold decrease of IC50 of Puromycin (HepG2-DR cells [4]; 4 μM test compound) | Reversing parameter: fold decrease of IC50 of Vinblastine (HepG2-DR cells [4]; 4 μM test compound) | Reduction of drug resistance to the four anti-tumor drugs (HepG2-DR cells [4]; 4 μM test compound, range over vinblastine, doxorubicin, puromycin, paclitaxel) | Resistant ratio (HepG2-DR cells [5]) | Reversing parameter: fold decrease of IC50, verapamil (K562-DR cells [6]) | Reversing parameter: fold decrease of IC50 of Doxorubicin (K562-DR cells [6]) | Reversing parameter: fold decrease of IC50 of Puromycin (K562-DR cells [6]) | Reversing parameter: fold decrease of IC50 of Vinblastine (K562-DR cells [6]) |
| --- | --- | --- | --- | --- | --- | --- | --- | --- | --- | --- | --- | --- | --- | --- | --- | --- | --- | --- | --- |
| COc1ccc(C(=O)O[C@@H]2c3c(ccc4ccc(=O)oc34)OC(C)(C)[C@@H]2OC(=O)c2ccc(OC)c(OC)c2)cc1OC (racemic) [cis-DMDBK, (±)-3′-O,4′-O-bis(3,4-dimethoxybenzoyl)-cis-khellactone] | no detectable alteration; also recorded: not observed | 0.46 | no detectable alteration; also recorded: not observed | 0.91 | 6.2 ± 0.7 fold | 4.6 ± 1.3 fold | 4.8 ± 4.1 fold | 33.5 ± 7.5 fold | 15.4 ± 4.6 fold | 12.4 ± 6.1 fold | 117.1 ± 13.8 fold | 74.6 ± 21.2 fold | 82.1 ± 13.1 fold | 62-117 times | 1.19 | 105.8 ± 51.1 fold | 18.9 ± 7.9 fold | 21.8 ± 3.1 fold | 75.6 ± 21.3 fold |
| COc1ccc(/C=C/C(=O)O[C@@H]2c3c(ccc4ccc(=O)oc34)OC(C)(C)[C@@H]2OC(=O)/C=C/c2ccc(OC)c(OC)c2)cc1OC (racemic) [cis-DMDCK, (±)-3′-O,4′-O-bis(3,4-dimethoxycinnamoyl)-cis-khellactone] | no detectable alteration; also recorded: not observed | 0.52 | no detectable alteration; also recorded: not observed | 1.29 | 22 fold and 22.5 ± 9.1 fold | 29 fold and 29.5 ± 13.0 fold | 45 fold and 45.7 ± 10.3 fold | 107 fold and 107.9 ± 51.9 fold | 111 fold and 111.1 ± 38.0 fold | 105 fold and 105.7 ± 21.2 fold | 160 fold and 160.6 ± 12.6 fold | 140 fold and 140.9 ± 65.1 fold | 130 fold and 129.9 ± 35.5 fold |  | 1.29 | 169.9 ± 39.4 fold | 28.8 ± 8.9 fold | 38.8 ± 8.9 fold | 138.7 ± 39.6 fold |
| COc1ccc(C(=O)O[C@@H]2[C@@H](OC(=O)c3ccc(OC)c(OC)c3)c3c(ccc4ccc(=O)oc34)OC2(C)C)cc1OC (racemic) [trans-DMDBK, (±)-3′-O,4′-O-bis(3,4-dimethoxybenzoyl)-trans-khellactone] | no detectable alteration; also recorded: not observed | 0.53 | no detectable alteration; also recorded: not observed | 1.50 |  |  |  | 3.8 ± 1.6 fold | 4.6 ± 1.4 fold | 1.5 ± 0.3 fold | 58.2 ± 17.2 fold | 28.5 ± 0.2 fold | 19.3 ± 10.4 fold |  | 1.31 | 9.8 ± 2.1 fold | 7.0 ± 2.2 fold | 6.7 ± 0.4 fold | 11.0 ± 0.6 fold |
